Test results as given in patent US10040791B2, “Isoxazole derivative as mutant isocitrate dehydrogenase 1 inhibitor” (Daiichi Sankyo Company, Limited, priority 2014, dated 2018).

Experiments:
[1] = tested on: HT1080 xenografted mice (IDH1R132C); test: 2-HG production inhibitory activity using HT1080 xenografted mice; assay type: in vivo, mouse; conditions: Mus musculus, HT-1080, po, 6 h, 2-HG production, HT1080 xenografted mice; read-out: Test Example 5 Ratio (%)
Procedure, shortened: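 Mice bearing HT1080 tumors received 75 mg/kg compound by oral gavage twice a day, three doses in total, at 10 mL/kg; vehicle-dosed mice were negative controls. Tumors were collected 6 h after the final dose, frozen, homogenized in methanol and centrifuged, and 2-HG was measured in the extracts.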

[2] = tested on: HT-1080 cells expressing IDH1R132C; test: 2-HG production inhibitory activity using HT1080 cell; assay type: cell-based, human; conditions: Homo sapiens, HT-1080; 2-HG production, HT1080 cells; read-out: Test Example 3 IC50
Description: Then, 100 μL of growth medium B was added to each well, further 25 μL of a solution of each compound diluted to a predetermined concentration with growth medium B was added to each well, and the cells were incubated at 37° C. for 2 days under 5% CO2. […] Then, 150 μL of ultrapure water was further added to each well, and the mixture was stirred by pipetting and stored at −20° C.
The preserved solutions were thawed at room temperature.

IDH1R132C = IDH1R132C (Homo sapiens (Human), UniProt O75874, R132C); test: Inhibitory activity against IDH1R132C enzyme (NADPH detection, WST-8); assay type: biochemical; conditions: 10 nM, residual NADPH detected with WST-8, read-out: Test Example 1 IDH1 R132C IC50
IDH1R132C, sequence (O75874 whole entry R132C): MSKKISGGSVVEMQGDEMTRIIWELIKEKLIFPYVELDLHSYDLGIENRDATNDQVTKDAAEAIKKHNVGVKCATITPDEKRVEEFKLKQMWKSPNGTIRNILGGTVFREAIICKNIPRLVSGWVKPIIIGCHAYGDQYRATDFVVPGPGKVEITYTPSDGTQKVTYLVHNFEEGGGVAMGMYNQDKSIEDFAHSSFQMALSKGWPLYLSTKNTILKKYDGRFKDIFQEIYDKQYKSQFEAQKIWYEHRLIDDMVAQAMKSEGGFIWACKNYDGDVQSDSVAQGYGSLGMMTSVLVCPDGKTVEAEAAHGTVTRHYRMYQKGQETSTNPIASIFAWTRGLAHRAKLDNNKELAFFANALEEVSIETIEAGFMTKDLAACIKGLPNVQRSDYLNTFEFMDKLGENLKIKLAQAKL

SMILES	response vs control in vivo at 75 mg/kg [1] [%]	IC50 [2] [nM]	IC50 (IDH1R132C) [nM]
C=CC(=O)N1CCN(c2onc(-c3c(Cl)cccc3Cl)c2C(=O)n2ccc3c(/C=C/C(=O)O)cccc32)CC1 [Example 142, (2E)-3-(1-{[5-(4-Acryloylpiperazin-1-yl)-3-(2,6-dichlorophenyl)-1,2-oxazol-4-yl]carbonyl}-1H-indol-4-yl)prop-2-enoic acid]	56	134	123
C=CC(=O)N1CCN(c2onc(-c3c(Cl)cc(Cl)cc3Cl)c2C(=O)n2ccc3c(/C=C/C(=O)O)cccc32)CC1 [Example 143, (2E)-3-(1-{[5-(4-Acryloylpiperazin-1-yl)-3-(2,4,6-trichlorophenyl)-1,2-oxazol-4-yl]carbonyl}-1H-indol-4-yl)prop-2-enoic acid]	60	148	150
C=CC(=O)N1C[C@@H](C)N(c2onc(-c3c(Cl)cccc3Cl)c2C(=O)n2ccc3c(/C=C/C(=O)O)cccc32)[C@@H](C)C1 [Example 144, (2E)-3-(1-{[5-(4-Acryloyl-cis-2,6-dimethylpiperazin-1-yl)-3-(2,6-dichlorophenyl)-1,2-oxazol-4-yl]carbonyl}-1H-indol-4-yl)prop-2-enoic acid]	34	107	151
C=CC(=O)N1CCN(c2onc(-c3c(Cl)cccc3Cl)c2C(=O)n2ccc3c(/C=C/C(=O)O)cccc32)[C@@H](C)C1 [Example 145, (2E)-3-[1-({5-[(2S)-4-Acryloyl-2-methylpiperazin-1-yl]-3-(2,6-dichlorophenyl)-1,2-oxazol-4-yl}carbonyl)-1H-indol-4-yl]prop-2-enoic acid]	56	820	214
C=CC(=O)N1CCN(c2onc(-c3c(Cl)cccc3Cl)c2C(=O)n2ccc3c(/C=C/C(=O)O)cccc32)C2(CC2)C1 [Example 147, (2E)-3-(1-{[5-[7-Acryloyl-4,7-diazaspiro[2.5]oct-4-yl]-3-(2,6-dichlorophenyl)-1,2-oxazol-4-yl]carbonyl}-1H-indol-4-yl)prop-2-enoic acid]	18	219	78
C=CC(=O)N1CCN(c2onc(-c3c(Cl)cc(Cl)cc3Cl)c2C(=O)n2ccc3c(/C=C/C(=O)O)cccc32)C[C@H]1C [Example 148, (2E)-3-[1-({5-[(3R)-4-Acryloyl-3-methylpiperazin-1-yl]3-(2,4,6-trichlorophenyl)-1,2-oxazol-4-yl}carbonyl)-1H-indol-4-yl]prop-2-enoic acid]	50	114	225
C=CS(=O)(=O)N1CCN(c2onc(-c3c(Cl)cccc3Cl)c2C(=O)n2ccc3c(/C=C/C(=O)O)cccc32)CC1 [Example 149, (2E)-3-[1-({3-(2,6-Dichlorophenyl)-5-[4-(ethenylsulfonyl)piperazin-1-yl]-1,2-oxazol-4-yl}carbonyl)-1H-indol-4-yl]prop-2-enoic acid]	96	278	132
C=CC(=O)N1CCN(c2onc(-c3c(Cl)cc(Cl)cc3Cl)c2C(=O)n2ccc3c(/C=C/C(=O)O)cccc32)C2(CC2)C1 [Example 150, (2E)-3-(1-{[5-[7-Acryloyl-4,7-diazaspiro[2.5]oct-4-yl]-3-(2,4,6-trichlorophenyl)-1,2-oxazol-4-yl]carbonyl}-1H-indol-4-yl)prop-2-enoic acid]	18	41	98
C=CC(=O)N1C[C@@H](C)N(c2onc(-c3c(Cl)cc(Cl)cc3Cl)c2C(=O)n2ccc3c(/C=C/C(=O)O)cccc32)[C@@H](C)C1 [Example 151, (2E)-3-(1-{[5-(4-Acryloyl-cis-2,6-dimethylpiperazin-1-yl)-3-(2,4,6-trichlorophenyl)-1,2-oxazol-4-yl]carbonyl}-1H-indol-4-yl)prop-2-enoic acid]	60	41	168
C=CC(=O)N1C[C@@H](C)N(c2onc(-c3c(Cl)cc(Cl)cc3Cl)c2C(=O)n2ccc3c(/C=C/C(=O)O)cccc32)C[C@H]1C [Example 152, (2E)-3-[1-({5-[(2R,5R)-4-Acryloyl-2,5-dimethylpiperazin-1-yl]-3-(2,4,6-trichlorophenyl)-1,2-oxazol-4-yl}carbonyl)-1H-indol-4-yl]prop-2-enoic acid]	87	276	222
C=CC(=O)N1CCN(c2onc(-c3c(Cl)cccc3Cl)c2C(=O)n2ccc3c(/C=C/C(=O)O)cccc32)[C@H](C2CC2)C1 [Example 154, (2E)-3-[1-({5-[(2R)-4-Acryloyl-2-cyclopropylpiperazin-1-yl]-3-(2,6-dichlorophenyl)-1,2-oxazol-4-yl}carbonyl)-1H-indol-4-yl]prop-2-enoic acid]	45	294	235
C=CC(=O)N1CC2(CC2)N(c2onc(-c3c(Cl)cccc3Cl)c2C(=O)n2ccc3c(/C=C/C(=O)O)cccc32)C[C@H]1C [Example 155, (2E)-3-[1-({5-[(6R)7-Acryloyl-6-methyl-4,7-diazaspiro[2.5]oct-4-yl]-3-(2,6-dichlorophenyl)-1,2-oxazol-4-yl}carbonyl)-1H-indol-4-yl]prop-2-enoic acid]	41	55	122
C=CC(=O)N1CC2(CC2)N(c2onc(-c3c(F)cccc3Cl)c2C(=O)n2ccc3c(/C=C/C(=O)O)cccc32)C[C@H]1C [Example 156, (2E)-3-[1-({5-[(6R)7-Acryloyl-6-methyl-4,7-diazaspiro[2.5]oct-4-yl]-3-(2-chloro-6-fluorophenyl)-1,2-oxazol-4-yl}carbonyl)-1H-indol-4-yl]prop-2-enoic acid]	60	167	167
C=CC(=O)N1CCN(c2onc(-c3c(F)cccc3Cl)c2C(=O)n2ccc3c(/C=C/C(=O)O)cccc32)C(C)(C)C1 [Example 157, (2E)-3-(1-{[5-(4-Acryloyl-2,2-dimethylpiperazin-1-yl)-3-(2-chloro-6-fluorophenyl)-1,2-oxazol-4-yl]carbonyl}-1H-indol-4-yl)prop-2-enoic acid]	89	265	256
C=CC(=O)N1CC2(CC2)N(c2onc(-c3c(Cl)cccc3OC)c2C(=O)n2ccc3c(/C=C/C(=O)O)cccc32)C[C@H]1C [Example 158, (2E)-3-[1-({5-[(6R)7-Acryloyl-6-methyl-4,7-diazaspiro[2.5]oct-4-yl]-3-(2-chloro-6-methoxyphenyl)-1,2-oxazol-4-yl}carbonyl)-1H-indol-4-yl]prop-2-enoic acid]	62	178	179
C=CC(=O)N1C[C@@H](C)N(c2onc(-c3c(Cl)cccc3Cl)c2C(=O)n2ccc3c(/C=C/C(=O)O)cccc32)C2(CC2)C1 [Example 159, (2E)-3-[1-({5-[(5R)7-Acryloyl-5-methyl-4,7-diazaspiro[2.5]oct-4-yl]-3-(2,6-dichlorophenyl)-1,2-oxazol-4-yl}carbonyl)-1H-indol-4-yl]prop-2-enoic acid]	30	138	84
C=CC(=O)N1CC2(CC2)N(c2onc(-c3c(F)cccc3Cl)c2C(=O)n2ccc3c(/C=C/C(=O)O)cccc32)C[C@H]1CC [Example 160, (2E)-3-[1-({5-[(6R)7-Acryloyl-6-ethyl-4,7-diazaspiro[2.5]oct-4-yl]-3-(2-chloro-6-fluorophenyl)-1,2-oxazol-4-yl}carbonyl)-1H-indol-4-yl]prop-2-enoic acid]	47	106	81
C=CC(=O)N1CC2(CC2)N(c2onc(-c3c(Cl)cccc3OC)c2C(=O)n2ccc3c(/C=C/C(=O)O)cccc32)C[C@H]1CC [Example 161, (2E)-3-[1-({5-{(6R)7-Acryloyl-6-ethyl-4,7-diazaspiro[2.5]oct-4-yl]-3-(2-chloro-6-methoxyphenyl)-1,2-oxazol-4-yl}carbonyl)-1H-indol-4-yl]prop-2-enoic acid]	72	121	98
C=CC(=O)N1CC2(CC2)N(c2onc(-c3c(Cl)cccc3Cl)c2C(=O)n2ccc3c(/C=C/C(=O)O)cccc32)C[C@H]1CC [Example 163, (2E)-3-[1-({5-[(6R)7-Acryloyl-6-ethyl-4,7-diazaspiro[2.5]oct-4-yl]-3-(2,6-dichlorophenyl)-1,2-oxazol-4-yl}carbonyl)-1H-indol-4-yl]prop-2-enoic acid]	33	45	98
C=CC(=O)N1CCC(c2onc(-c3c(Cl)cc(Cl)cc3Cl)c2C(=O)c2cn(C)c3c(/C=C/C(=O)O)cccc23)CC1 [Example 166, (2E)-3-(3-{[5-(1-Acryloylpiperidin-4-yl)-3-(2,4,6-trichlorophenyl)-1,2-oxazol-4-yl]carbonyl}-1-methyl-1H-indol-7-yl)prop-2-enoic acid]	81	299	141
Cn1cc(C(=O)c2c(-c3c(Cl)cc(Cl)cc3Cl)noc2C(C)(C)C)c2ccc3ccc(C(=O)O)cc3c21 [Example 167, 3-{[5-tert-Butyl-3-(2,4,6-trichlorophenyl)-1,2-oxazol-4-yl]carbonyl}-1-methyl-1H-benzo[g]indole-8-carboxylic acid]	87	195	196
